Measurements published in the NIST ThermoML archive (doi:10.1016/j.jct.2014.01.007).
Numbers after ± are expanded uncertainties.

Experiments:
[1] = molar enthalpy of vaporization or sublimation; settings: 298.15 K; Liquid; Static calorimetry
[2] = for mass density: 101.33 kPa; for Triple point temperature: DTA
[3] = Molar enthalpy of transition or fusion; settings: DSC

Row | molar enthalpy [1] [kcal/mol] | mass density ([2]; 288.15 K, Liquid, Vibrating tube method) [kg/m3] | mass density ([2]; 293.15 K, Liquid, Vibrating tube method) [kg/m3] | mass density ([2]; 298.14 K, Liquid, Vibrating tube method) [kg/m3] | mass density ([2]; 303.15 K, Liquid, Vibrating tube method) [kg/m3] | mass density ([2]; 308.15 K, Liquid, Vibrating tube method) [kg/m3] | Molar enthalpy of transition or fusion ([3]; Crystal 1) [kcal/mol] | Molar enthalpy of transition or fusion ([3]; Crystal 2) [kcal/mol] | mass density ([2]; 167 K, Crystal 2, X-ray diffraction) [kg/m3] | mass density ([2]; 251 K, Crystal 1, X-ray diffraction) [kg/m3] | Triple point temperature ([2]; Crystal 1) [K] | Triple point temperature ([2]; Crystal 2) [K] | SMILES
1 | 11.9 ± 0.359 | 921.517 ± 0.12 | 917.012 ± 0.12 | 912.5 ± 0.12 | 907.982 ± 0.12 | 903.458 ± 0.12 |  |  |  |  |  |  | CN(C)C(=N)N(C)C [1,1,3,3-tetramethylguanidine]
2 |  |  |  |  |  |  | 4.74 ± 0.122 | 0.159 ± 0.0335 | 1295 ± 7 | 1284 ± 7 | 365.9 ± 0.5 | 221.4 ± 1.7 | CN(C)C(N)=[N+](C)C.O=[N+]([O-])[O-] [tetramethylguanidinium nitrate]
